What was measured:
endothelial cells [1] = assay: Tube formation of endothelial cells in three-dimensional collagen fiber gel model, inverted microscopy; format: cell-based, Sprague-Dawley (SD) rats; settings: cultured for 48 hours
Protocol: (§1) Three-dimensional collagen fiber gel: The dry collagen fiber was extract from tails of Sprague-Dawley (SD) rats. The fiber was dissolved in 1 N acetic acid solution in the concentration of 1 g fiber/100 mL acetic acid. The dissolving was performed at 4° C. for 48 hours and followed by dialysis three times with 0.25 N acetic acid solution for 24 hours.
(§2) Endothelial cells: SD rats weighting 100 to 200 g were anaesthetized with 0.1 mL/100 g body weight of barbiturate (Nembutal™, Abbott® Laboratories, USA) intraperitoneally. The thoracic aortas were cut and the connective tissues were removed. The vessels were further split into vessel rings thickening about 2 mm, and then cultured the rings in fresh Dulbecco's modified Eagle medium (DMEM) with 10% fetal bovine serum. The culture was maintained at 37° C. with 5% CO2 with changing the medium every two days. After cultured for 5 to 6 days, the cells were harvested. The endothelial cells suitable for the method according to the invention were the second to tenth passage cells.
Model: The endothelial cells (3×10^6) were mixed in the three-dimensional collagen fiber gel and cultured in DMEM containing 5% fetal bovine serum and 10 ng/mL VEGF and 3.08 ng/mL TPA at 37° C. After culturing the endothelial cells for 0, 6, 12, 24, 48, and 72 hours, the morphologies of the cell and gel were both observed with an inverted microscope. […]

endothelial cells [2] = assay: Collapse of the three-dimensional collagen fiber gel, trypan blue absorbance measurement; format: cell-based, Sprague-Dawley (SD) rats
Protocol: as §1
as §2, with “cells. […]” for “cells.”
After culturing for 48 hours, the medium was removed and 0.075% trypan blue was added for staining the gels for 30 minutes. The upper solution was then removed and the absorbance of the solution was determined with a spectroscope. […]
It was evidenced that the degree of collapse of the three-dimensional collagen fiber gel is decreased with the addition of EGCg. That results support that the effect of a compound on angiogenesis can be determined by comparing the degrees of collapse of the collagen fiber gels of the models. For instance, the compound is determined to have a stimulatory effect on angiogenesis in case the collapse of the collagen fiber gel of the model added with the compound is increased in comparison with that added without the compound; in contrast, the compound is determined to have an inhibitory effect on angiogenesis in case the collapse of the collagen fiber gel of the model added with the compound is decreased in comparison with that added without the compound.

O=C(O[C@@H]1Cc2c(O)cc(O)cc2O[C@@H]1c1cc(O)c(O)c(O)c1)c1cc(O)c(O)c(O)c1 [EGCg, epigallocatechin gallate]
tubes and cell count versus control without EGCg (endothelial cells [1]; 25 μM EGCg): less tubes and lower cell count
tubes (endothelial cells [1]; 100 μM EGCg): almost no tubes
inhibitory effect on angiogenesis (absorbance measurement) (endothelial cells [2]; 25 μM EGCg): a little inhibitory effect on angiogenesis
collapse of the gel (absorbance measurement) (endothelial cells [2]; 50 μM EGCg): nearly totally inhibited
collapse of the gel (absorbance measurement) (endothelial cells [2]; 100 μM EGCg): nearly no collapse was observed
